The values below come from US20260184706A1, “PHENYLSULFONAMIDE DERIVATIVES, PREPARATION METHOD THEREFOR, AND PHARMACEUTICAL COMPOSITION FOR PREVENTION OR TREATMENT OF CANCER CONTAINING SAME AS ACTIVE INGREDIENT” (Korea Research Institute of Chemical Technology, priority 2022, published 2026).

Assay [1] addresses recombinant human GCN2 protein (Homo sapiens, UniProt Q9P2K8). Kind of assay: General control nonderepressible 2 (GCN2) inhibitory capacity, 33P-ATP filter assay. The note with it: recombinant human GCN2, 70 uM [gamma-33P-ATP], 40 minutes, room temperature. The class given is biochemical. As to the method:
<Experimental Example 2> Evaluation of General Control Nonderepressible 2 (GCN2) Inhibitory Capacity
(§1) A recombinant human GCN2 protein was mixed with the compound in a reaction solution (20 mM Tris/HCl pH8.5, 0.2 mM EDTA, 0.1% Tween, 100 mM NaCl, 300 μM RSRSRSRSRSRSRSR, 10 mM Magnesium acetate, 70 uM [gamma-33P-ATP]) and reacted at room temperature for 40 minutes. Then, the reaction was terminated by adding phosphoric acid (0.5%) to the reaction mixture, and 10 ul of the reaction solution was dropped onto a P30 filter. The filter was washed four times in a 0.425% phosphoric acid solution for 4 minutes, then washed once more in methanol, dried, and the GCN2 activity was measured by scintillation counting. […] The compound was diluted by 1/3 from the highest concentration of 1 uM and treated with a total of 9 concentrations to evaluate the degree of inhibition.

For a further assay, the target named is T1, phosphorylated GCN2 (Homo sapiens, UniProt Q9P2K8).
T1 construct: endogenous in cells; host or cells: HT-1080
T1 sequence (Q9P2K8 whole entry): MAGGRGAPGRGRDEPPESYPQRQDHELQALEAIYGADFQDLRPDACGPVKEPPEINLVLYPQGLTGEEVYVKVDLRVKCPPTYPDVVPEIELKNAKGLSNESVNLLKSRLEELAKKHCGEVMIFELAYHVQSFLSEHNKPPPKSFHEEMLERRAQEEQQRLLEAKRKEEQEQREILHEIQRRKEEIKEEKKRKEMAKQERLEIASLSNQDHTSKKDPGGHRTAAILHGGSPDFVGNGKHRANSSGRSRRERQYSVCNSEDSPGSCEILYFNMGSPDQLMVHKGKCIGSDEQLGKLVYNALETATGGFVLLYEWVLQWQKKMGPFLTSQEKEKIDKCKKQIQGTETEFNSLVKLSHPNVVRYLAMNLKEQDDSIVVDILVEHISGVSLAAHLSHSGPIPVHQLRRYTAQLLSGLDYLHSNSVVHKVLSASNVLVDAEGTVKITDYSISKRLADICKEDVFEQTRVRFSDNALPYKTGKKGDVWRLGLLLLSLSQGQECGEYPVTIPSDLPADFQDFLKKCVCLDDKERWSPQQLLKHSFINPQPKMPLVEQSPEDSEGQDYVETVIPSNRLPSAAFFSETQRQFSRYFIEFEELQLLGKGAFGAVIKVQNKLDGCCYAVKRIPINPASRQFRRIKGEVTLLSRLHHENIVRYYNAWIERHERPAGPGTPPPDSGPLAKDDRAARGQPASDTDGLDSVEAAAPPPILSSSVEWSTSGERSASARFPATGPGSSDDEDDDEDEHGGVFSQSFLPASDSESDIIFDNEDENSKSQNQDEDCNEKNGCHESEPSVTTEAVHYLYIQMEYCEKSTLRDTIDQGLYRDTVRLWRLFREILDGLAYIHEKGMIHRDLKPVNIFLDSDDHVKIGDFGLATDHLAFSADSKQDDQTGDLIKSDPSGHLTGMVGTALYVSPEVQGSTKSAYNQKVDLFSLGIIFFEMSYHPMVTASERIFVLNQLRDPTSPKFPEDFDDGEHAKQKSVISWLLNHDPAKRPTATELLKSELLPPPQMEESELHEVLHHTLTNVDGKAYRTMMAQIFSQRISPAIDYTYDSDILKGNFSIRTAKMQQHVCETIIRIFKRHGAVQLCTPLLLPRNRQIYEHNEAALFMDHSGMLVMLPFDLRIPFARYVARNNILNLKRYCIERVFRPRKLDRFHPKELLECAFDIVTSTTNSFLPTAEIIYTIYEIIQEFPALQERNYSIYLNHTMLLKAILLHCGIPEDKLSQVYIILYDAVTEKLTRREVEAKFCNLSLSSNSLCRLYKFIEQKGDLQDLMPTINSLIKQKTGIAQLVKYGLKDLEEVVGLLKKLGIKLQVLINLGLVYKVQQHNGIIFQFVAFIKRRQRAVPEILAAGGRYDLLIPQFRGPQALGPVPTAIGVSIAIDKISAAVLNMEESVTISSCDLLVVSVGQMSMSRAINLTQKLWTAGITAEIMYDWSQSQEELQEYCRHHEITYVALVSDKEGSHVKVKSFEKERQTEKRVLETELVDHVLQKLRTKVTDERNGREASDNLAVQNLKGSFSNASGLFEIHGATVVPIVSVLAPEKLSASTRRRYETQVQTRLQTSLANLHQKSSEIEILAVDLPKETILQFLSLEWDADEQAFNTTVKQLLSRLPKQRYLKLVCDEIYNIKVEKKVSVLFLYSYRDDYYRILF
Put plainly: Inhibition of phosphorylated GCN2 under amino acid deficiency in HT-1080 cells, Western blot. The class given is cell-based. The settings on record: compound 50 nM, 24 hours; for Phospho-GCN2 inhibition: symbols ◯ / X not defined. The method, then:
<Experimental Example 5> Evaluation of Inhibitory Efficacy of ISR-Related Kinase GCN2 Under Amino Acid Deficiency Condition Using Western Blot
HT-1080 cells, a human fibrosarcoma cell line, were cultured in RPMI-1640 medium supplemented with 10% FBS, penicillin (penicillin; 100 IU/ml), and streptomycin (streptomycin; 100 μg/ml). Cells (1×10^6 cells/ml) were seeded onto 100 mm plates (polypropylene tissue culture plate) and incubated for 24 hours in a 37° C., 5% CO2 incubator before being used for experiments.
The following method was used to achieve amino acid deficiency conditions in cells. After 24 hours of cell culture, the cells were cultured in amino acids and L-glutamine-free RPMI-1640 medium supplemented with 10% FBS, penicillin (100 IU/ml), and streptomycin (100 μg/ml). After 24 hours of cell culture in RPMI-1640 without amino acids and L-glutamine, the compound prepared at a concentration of 50 nM was dispensed onto each plate and cultured for 24 hours in a 37° C., 5% CO2 incubator.
In order to measure the signal transduction inhibitory efficacy of GCN among the ISR-related kinases according to the present invention, the following experiment was performed using SDS-PAGE. The fibrosarcoma cell line HT-1080 cells cultured on plates as described above were washed with PBS after removing the culture medium. After removing PBS, the cells were lysed by adding a radio-immunoprecipitation assay buffer (RIPA buffer) containing 50 mM Tris (pH 7.4), 150 mM NaCl, 1% NP-40, 0.5% sodium deoxycholate, 2 mM sodium fluoride, 2 mM EDTA, 0.1% SDS, and a protease/phosphatase inhibitor cocktail to the plate. After centrifugation at 4° C., 13,000×g for 15 minutes, the protein in the upper layer was collected, and the protein concentration was measured at 562 nm using BCA (bicinchoninc acid) reagent, and the amount of protein in all samples was prepared at 20-50 μg.
After making the total volume the same using the sample buffer and RIPA buffer, it was heated at 97° C. for 5 minutes. Then, electrophoresis was performed on 8% or 12% SDS-PAGE at 80 V for 30 minutes and at 160 V for 1 hour and 30 minutes. After electrophoresis, the SDS-PAGE gel was transferred to an NC membrane (nitrocellulose membrane) at 90 V for 2 hours. The NC membrane was placed in TBST (tris buffer saline tween-20; 20 mM tris, 137 mM sodium chloride, 0.1% tween-20, pH 8.0) containing 5% non-fat skim milk, placed on a shaker, and reacted at room temperature for 1 hour.
Each primary antibody was diluted in TBST containing 5% non-fat skim milk, poured onto the NC membrane, and reacted at 4° C. for 24 hours. The membrane was washed three times for 10 minutes each with TBST. The secondary antibodies (anti-rabbit IgG and anti-mouse IgG labeled with horseradish peroxidase (HRP)) were diluted in TBST containing 5% non-fat skim milk and reacted with the membrane at room temperature for 1 hour. Upon completion of the reaction, the membrane was washed three times with TBST for 10 minutes each. Protein expression bands were detected by a chemiluminescence image analyzer (Image Quant LAS 500) after the ECL solution was reacted with the NC membrane.
GCN2, a key kinase of the integrated stress response (ISR), is phosphorylated in response to amino acid deficiency.
For orientation: Immunoblotting shows a protein as a band on a membrane.

Assay [2] has as its target T2, recombinant human PERK protein (Homo sapiens, UniProt Q9NZJ5).
T2 sequence (Q9NZJ5 30-1116): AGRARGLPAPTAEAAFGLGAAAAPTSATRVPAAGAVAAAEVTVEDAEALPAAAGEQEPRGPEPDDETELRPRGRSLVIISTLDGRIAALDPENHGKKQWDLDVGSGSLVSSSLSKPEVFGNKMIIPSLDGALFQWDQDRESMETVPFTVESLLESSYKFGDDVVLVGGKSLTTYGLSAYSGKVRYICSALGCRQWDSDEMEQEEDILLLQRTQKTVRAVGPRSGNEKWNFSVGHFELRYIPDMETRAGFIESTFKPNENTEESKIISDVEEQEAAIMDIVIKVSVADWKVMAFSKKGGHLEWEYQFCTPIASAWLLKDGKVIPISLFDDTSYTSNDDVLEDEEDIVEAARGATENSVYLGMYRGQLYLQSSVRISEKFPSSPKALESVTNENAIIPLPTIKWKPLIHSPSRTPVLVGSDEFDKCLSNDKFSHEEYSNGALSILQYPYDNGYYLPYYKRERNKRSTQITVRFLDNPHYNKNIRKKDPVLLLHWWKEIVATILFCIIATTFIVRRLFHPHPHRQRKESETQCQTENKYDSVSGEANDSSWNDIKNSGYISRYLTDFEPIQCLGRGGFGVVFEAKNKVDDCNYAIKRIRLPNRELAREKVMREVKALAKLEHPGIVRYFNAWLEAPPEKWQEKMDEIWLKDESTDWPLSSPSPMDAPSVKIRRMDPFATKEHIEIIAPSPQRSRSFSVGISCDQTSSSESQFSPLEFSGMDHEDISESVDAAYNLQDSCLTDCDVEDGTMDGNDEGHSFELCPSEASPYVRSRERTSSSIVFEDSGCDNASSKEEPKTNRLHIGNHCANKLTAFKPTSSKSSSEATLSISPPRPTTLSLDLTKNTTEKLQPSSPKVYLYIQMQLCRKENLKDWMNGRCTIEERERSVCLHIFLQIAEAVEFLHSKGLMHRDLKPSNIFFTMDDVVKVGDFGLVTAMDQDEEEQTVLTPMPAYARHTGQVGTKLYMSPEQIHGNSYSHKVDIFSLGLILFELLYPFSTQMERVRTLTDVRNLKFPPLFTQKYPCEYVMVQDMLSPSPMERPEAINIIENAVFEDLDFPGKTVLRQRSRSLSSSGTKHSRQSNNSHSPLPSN
Kind of assay: PKR-like endoplasmic reticulum kinase (PERK) inhibitory capacity, 33P-ATP filter assay. The format is biochemical. The settings on record: 15 uM [gamma-33P-ATP], 40 minutes, room temperature. The method, then: <Experimental Example 1> Evaluation of PKR-Like Endoplasmic Reticulum Kinase (PERK) Inhibitory Capacity
as §1, with “PERK” for “GCN2”, “(8” for “(20”, “MOPS pH 7.0,” for “Tris/HCl pH8.5,”, “EDTA,” for “EDTA, 0.1% Tween, 100 mM NaCl,”, “uM” for “μM”, “15” for “70”

SMILES strings stand for the structures.

recombinant human GCN2 protein, sequence (Q9P2K8 whole entry): as the sequence (Q9P2K8 whole entry) above

With `COc1ncc(Cl)cc1S(=O)(=O)Nc1ccc(F)c(-n2ccc3nc(N)ncc3c2=O)c1F` [Example 26, N-(3-(2-amino-5-oxopirido[4,3-d]pyrimidin-6(5H)-yl)-2,4-difluorophenyl)-5-chloro-2-methoxypyridine-3-sulfonamide], in assay [1], the half-inhibitory concentration (IC50) was below 100 nM. On phosphorylated GCN2, the “inhibitory effect on the phosphorylated GCN2” value (shortened to “inhibitory effect”) is given as “excellent inhibitory effect” and the Phospho-GCN2 inhibition entry is recorded as “◯”.
Consider `Nc1ncc2c(=O)n(-c3c(F)ccc(NS(=O)(=O)c4cc(Cl)ccc4Cl)c3F)c(=O)n(C3CC3)c2n1` [Example 63, N-(3-(7-amino-1-cyclopropyl-2,4-dioxo-1,4-dihydropyrimido[4,5-d]pyrimidin-3(2H)-yl)-2,4-difluorophenyl)-2,5-dichlorobenzenesulfonamide], for which the IC50 in assay [1] is 300 to 1000 nM. Moreover, at phosphorylated GCN2, the “inhibitory effect” value was “excellent inhibitory effect” and the Phospho-GCN2 inhibition entry was “◯”.
For `COc1ncc(Cl)cc1S(=O)(=O)Nc1ccc(F)c(-n2c(=O)c3cnc(N)nc3n(C3CC3)c2=O)c1F` [Example 65, N-(3-(7-amino-1-cyclopropyl-2,4-dioxo-1,4-dihydropyrimido[4,5-d]pyrimidin-3(2H)-yl)-2,4-difluorophenyl)-5-chloro-2-methoxypyridine-3-sulfonamide], in that order: 300 to 1000 nM, “excellent inhibitory effect” and “◯”.
`Cc1nn(C)c(C)c1S(=O)(=O)Nc1ccc(F)c(-n2c(=O)c3cnc(N)nc3n(C)c2=O)c1F` [Example 48, N-(3-(7-amino-1-methyl-2,4-dioxo-1,4-dihydropyrimido[4,5-d]pyrimidin-3(2H)-yl)-2,4-difluorophenyl)-1,3,5-trimethyl-1H-pyrazole-4-sulfonamide]: the IC50 in assay [1] lay in the range of 100 to 300 nM. Further, the Phospho-GCN2 inhibition entry at phosphorylated GCN2 is on record as “◯”.
As for `Nc1ncc2c(=O)n(-c3c(F)ccc(NS(=O)(=O)c4cccc5ccccc45)c3F)c(=O)n(C3CC3)c2n1` [Example 64, N-(3-(7-amino-1-cyclopropyl-2,4-dioxo-1,4-dihydropyrimido[4,5-d]pyrimidin-3(2H)-yl)-2,4-difluorophenyl)naphthalene-1-sulfonamide], in assay [1], the IC50 lay within 300 to 1000 nM. For the same compound, on phosphorylated GCN2, the “inhibitory effect” value was “excellent inhibitory effect” and the Phospho-GCN2 inhibition entry is “◯”.
On to `COc1ncc(Cl)cc1S(=O)(=O)Nc1ccc(F)c(-n2nc(C)c3nc(N)ncc3c2=O)c1F` [Example 38, N-(3-(2-amino-8-methyl-5-oxopyrimido[4,5-d]pyridazine-6(5H)-yl)-2,4-difluorophenyl)-5-chloro-2-methoxypyridine-3-sulfonamide], for which the IC50 in assay [1] fell in the range of 100 to 300 nM. Further, the Phospho-GCN2 inhibition entry at phosphorylated GCN2 was “◯”.
On to `Cc1nn(-c2c(F)ccc(NS(=O)(=O)c3c(Cl)nn(C)c3C)c2F)c(=O)c2cnc(N)nc12` [Example 36, N-(3-(2-amino-8-methyl-5-oxopyrimido[4,5-d]pyridazine-6(5H)-yl)-2,4-difluorophenyl)-3-chloro-1,5-dimethyl-1H-pyrazole-4-sulfonamide], for which the concentration for half-maximal inhibition (IC50) in assay [1] lay within 100 to 300 nM. At phosphorylated GCN2, the “inhibitory effect” value is “excellent inhibitory effect”.
Take `Cn1c(=O)c(-c2c(F)ccc(NS(=O)(=O)c3cc(C(F)(F)F)ccc3Cl)c2F)cc2cnc(N)nc21` [Example 18, N-(3-(2-amino-8-methyl-7-oxo-7,8-dihydropyrido[2,3-d]pyrimidin-6-yl)-2,4-difluorophenyl)-2-chloro-5-(trifluoromethyl)benzenesulfonamide]: the IC50 in assay [1] is 100 to 300 nM; in assay [2], below 100 nM.
Turning to `Cn1c(=O)c(-c2c(F)ccc(NS(=O)(=O)c3cccnc3Cl)c2F)cc2cnc(N)nc21` [Example 11, N-(3-(2-amino-8-methyl-7-oxo-7,8-dihydropyrido[2,3-d]pyrimidin-6-yl)-2,4-difluorophenyl)-2-chloropyridine-3-sulfonamide], the IC50 in assay [1] and in assay [2] was 100 to 300 nM throughout.

A word on the IC50: it is the point on the concentration scale where inhibition reaches its midpoint.
